From patent publication US10357501B2, “Treating conditions associated with increased eotaxin with 25-hydroxyvitamin D3” (DSM IP ASSETS B.V., priority 2010, dated 2019)

Columns and labels:
[1] = in vivo; cited from earlier work
[2] = considered; no test described; cited from earlier work
[3] = Clinical trial: 25(OH)D levels after oral supplementation; settings: female, human, in vivo
Description: The objective was studying and comparing the pharmacokinetic characteristics of vitamin D3 and 25-hydroxyvitamin D3 administered to humans. Equimolar quantities of both substances were investigated. The regimen was based on 20 μg/day (or its equivalent on a weekly basis) of 25-hydroxyvitamin D3. For comparative purposes, it was necessary to administer equimolar quantities of either vitamin D3 or 25-hydroxyvitamin D3. In respect to administration of vitamin D3, the dose was considered to be sufficient to overcome background variability and provide and efficacious dose to the participants. […]
Plasma concentrations of 25-hydroxyvitamin D3 (e.g., peak and steady state) were determined by obtaining samples from the subjects at various times after the dosage was ingested. For screening purposes and to establish baseline values, a blood sample was obtained prior to enrollment into the study and the clinical laboratory measured vitamin D3, 25-hydroxyvitamin D3, calcium, creatinine, albumin, and fasting glucose in the serum. […]
Twenty healthy postmenopausal women with 25-Hydroxyvitamin D3 levels below 25 ng/ml and a mean age of 61.5 years (SD ±7.2) were enrolled in this study. […] On 14 visits over 4 months, 25(OH)D levels, and 7 inflammation markers (eotaxin, IL-8, IL-12, IP-10, MCP-1, MP-1β, RANTES) were measured. […]

[4] = ingestion of 250 μg/day as a dietary supplement; cited from earlier work

Molecule: 25-hydroxyvitamin D
- blood concentration at which hypercalcemia may occur [1]: greater than 375 nmol/L

Molecule: C=C1CC[C@H](O)C/C1=C/C=C1\CCC[C@]2(C)[C@@H]([C@H](C)CCCC(C)(C)O)CC[C@@H]12 [25-Hydroxyvitamin D3, 25-hydroxyvitamin D3]
- activity relative to Vitamin D3 [2]: approximately 3 ×

Molecule: C=C1CC[C@H](O)C/C1=C/C=C1\CCC[C@]2(C)[C@@H]([C@H](C)CCCC(C)C)CC[C@@H]12 [Vitamin D3, cholecalciferol]
- Mean 25(OH)D levels [3]: 13.5 ng/mL

Molecule: Vitamin D
- blood concentration of 25-hydroxyvitamin D [4]: about 200 nmol/L
